Measured values taken from patent US10376520B2, “Methods for the treatment of cardiovascular disorders” (Galapagos NV, priority 2015, dated 2019).

Key:
[1] = tested on: Japanese and Caucasian healthy subjects; assay: [HDL] determination, Study 3 (healthy volunteers); type: in vivo, human; conditions: 200 mg q.d.
Experimental: Randomized, double-blind, placebo-controlled study for the assessment of safety, tolerability, pharmacokinetics, and pharmacodynamics, of multiple oral doses of Compound 1 (dosed as a [Compound 1:HCl:3H2O]) in Japanese and Caucasian healthy subjects.
Randomized, double-blind, placebo-controlled, single center, sequential design study.
Compound 1 (dosed as a [Compound 1:HCl:3H2O]) is administered for 10 days as oral film-coated tablet (25 and 100 mg and matching placebos). Placebo are provided as a matching tablet.
The study drug is ingested with 240 mL water after a standardized breakfast on Days 2-9. On PK days (Day 1 and Day 10) the study drug is administered in a fasted state (subjects will receive lunch 4 h after dosing on Day 1 and Day 10).
10 Japanese subjects (6 active, 4 placebo) and 10 Caucasian subjects (6 active, 4 placebo) will receive once daily an oral dose of 200 mg Compound 1 (dosed as a [Compound 1:HCl:3H2O]) or matching placebo as two tablets of 100 mg or matching placebo for 10 days. For practical reasons, these subjects may be split over separate groups, each group consisting of an equal number of Japanese and Caucasian Compound 1 (dosed as a [Compound 1:HCl:3H2O]) treated subjects and Japanese and Caucasian placebo subjects.
(§1) This assay relies on a homogeneous enzymatic colorimetric test. In the presence of magnesium ions, dextran sulfate selectively forms water-soluble complexes with LDL, VLDL and chylomicrons which are resistant to PEG-modified enzymes.
(§2) The cholesterol concentration of [HDL]-cholesterol is determined enzymatically by cholesterol esterase and cholesterol oxidase coupled with PEG to the amino groups (approx. 40%).
(§3) In the presence of peroxidase, the hydrogen peroxide generated reacts with 4-amino-antipyrine and Sodium N-(2-hydroxy-3-sulfopropyl)-3,5-dimethoxyaniline (HSDA) to form a purple-blue dye. The color intensity of this dye is directly proportional to the cholesterol concentration and is measured photometrically.
(§4) Human serum and plasma samples [HDL] determination was done on a Roche/Hitachi Cobas c 701/702 system which automatically calculate the analyte concentration of each sample. Samples containing precipitates are centrifuged before performing the assay.

RA patients = assay: [HDL] determination, Study 4 (RA patients, 4 weeks, add-on to MTX); type: in vivo, human
From the text: Randomized, double-blind, placebo-controlled, multicenter, phase II study of Compound 1 (dosed as a [Compound 1:HCl:3H2O]) to compare four dose regimens versus placebo, in combination with methotrexate, administered for 4 weeks in the treatment of subjects with active rheumatoid arthritis who have an inadequate response to methotrexate alone.
Randomized double-blind, placebo-controlled add on study in subjects with active RA who have an inadequate response to MTX monotherapy, in combination with methotrexate, administered for 4 weeks in the treatment of subjects with active rheumatoid arthritis who have an inadequate response to methotrexate alone.
90 subjects randomized to one of 4 dose regimens of Compound 1 (dosed as a [Compound 1:HCl:3H2O]) or placebo, on top of their stable dose of MTX. Thus, each of the 4 different doses of Compound 1 (dosed as a [Compound 1:HCl:3H2O]) and placebo groups has 18 subjects.
Compound 1 (dosed as a [Compound 1:HCl:3H2O]) capsules administered orally in 30 mg, 75 mg, 150 mg, or 300 mg doses per day for 4 weeks.
as §1, §2, §3, §4

O=C(Nc1nc2cccc(-c3ccc(CN4CCS(=O)(=O)CC4)cc3)n2n1)C1CC1 [Compound 1, cyclopropanecarboxylic acid {5-[4-(1,1-dioxo-thiomorpholin-4-ylmethyl)-phenyl]-[1,2,4]triazolo[1,5-a]pyridin-2yl}-amide]
[HDL] % Mean % variation vs baseline 10 days ([1]; Caucasian): 6% | [HDL] levels ([1]; Caucasian, day 0): 1.5 mmol/L | [HDL] levels ([1]; Caucasian, day 5): 1.5 mmol/L | [HDL] levels ([1]; Caucasian, day 10): 1.6 mmol/L | [HDL] levels ([1]; Caucasian, day 17): 1.6 mmol/L | [HDL] % Mean % variation vs baseline 10 days ([1]; Japanese): 15.6% | [HDL] levels ([1]; Japanese, day 0): 1.3 mmol/L | [HDL] levels ([1]; Japanese, day 5): 1.3 mmol/L | [HDL] levels ([1]; Japanese, day 10): 1.5 mmol/L | [HDL] levels ([1]; Japanese, day 17): 1.4 mmol/L | [HDL] levels (RA patients; 30 mg q.d., Baseline): 1.40 mmol/L | [HDL] levels (RA patients; 30 mg q.d., week 1): 1.44 mmol/L | [HDL] levels (RA patients; 30 mg q.d., week 2): 1.43 mmol/L | [HDL] levels (RA patients; 30 mg q.d., week 3): 1.38 mmol/L | [HDL] levels (RA patients; 30 mg q.d., week 4): 1.43 mmol/L | [HDL] % Mean % variation vs baseline after 4 weeks (RA patients; 30 mg qd): 4% | [HDL] levels (RA patients; 75 mg q.d., Baseline): 1.46 mmol/L | [HDL] levels (RA patients; 75 mg q.d., week 1): 1.46 mmol/L | [HDL] levels (RA patients; 75 mg q.d., week 2): 1.50 mmol/L | [HDL] levels (RA patients; 75 mg q.d., week 3): 1.56 mmol/L | [HDL] levels (RA patients; 75 mg q.d., week 4): 1.57 mmol/L | [HDL] % Mean % variation vs baseline after 4 weeks (RA patients; 75 mg qd): 11% | [HDL] levels (RA patients; 150 mg q.d., Baseline): 1.46 mmol/L | [HDL] levels (RA patients; 150 mg q.d., week 1): 1.45 mmol/L | [HDL] levels (RA patients; 150 mg q.d., week 2): 1.47 mmol/L | [HDL] levels (RA patients; 150 mg q.d., week 3): 1.55 mmol/L | [HDL] levels (RA patients; 150 mg q.d., week 4): 1.53 mmol/L | [HDL] % Mean % variation vs baseline after 4 weeks (RA patients; 150 mg qd): 4% | [HDL] levels (RA patients; 300 mg q.d., Baseline): 1.36 mmol/L | [HDL] levels (RA patients; 300 mg q.d., week 1): 1.55 mmol/L | [HDL] levels (RA patients; 300 mg q.d., week 2): 1.73 mmol/L | [HDL] levels (RA patients; 300 mg q.d., week 3): 1.75 mmol/L | [HDL] levels (RA patients; 300 mg q.d., week 4): 1.84 mmol/L | [HDL] % Mean % variation vs baseline after 4 weeks (RA patients; 300 mg qd): 38%
